Patent publication US20140051661A1, “NOVEL LIPOGENIC INHIBITORS AND USES THEREOF” (The Texas A&M University System, priority 2011, published 2014)

Tests used:
[1] = system: fatty acid synthase (FAS) mRNA; assay: FAS mRNA levels in HepG2 cells by quantitative RT-PCR; format: cell-based, human; conditions: 30 μM (0.03 mM) compound, 6 hours, qRT-PCR
Method: (§1) HepG2, HEK293 cells, and MEFs were cultured at 37° C. and 5% CO2 in Dulbecco's modified Eagle's medium (DMEM; Sigma), supplemented with […] of penicillin-streptomycin (GIBCO-BRL), 10% (or otherwise indicated) fetal bovine serum (Hyclone), and 20 mM Glutamine.
(§2) Total RNA was extracted from cells with Trizol (Invitrogen, Carlsbad, Calif.) and quantified with an Agilent 2100 Bioanalyzer (Agilent Technologies, Santa Clara, Calif.). For mRNA quantification, 2 ug of RNA was converted to cDNA with a High Capacity cDNA Reverse Transcription kit (Applied Biosystems, Foster City, Calif.), and transcript levels of relevant genes were determined by real-time, quantitative PCR with an ABI 7300 Real Time PCR machine according to the manufacturers instructions.
(§3) HepG2 and FAO cells as well as primary rat hepatocytes were cultured at 37° C. and 5% CO2 in Dulbecco's modified Eagle's medium (DMEM; Sigma, St. Louis, Mo.), supplemented with […] of penicillin-streptomycin (P/S, GIBCO-BRL), 10% fetal bovine serum (FBS, Hyclone) and 20 mM glutamine. Primary rat hepatocytes were isolated using a method as described previously (20), and plated onto collagen-coated 6-cm dishes (3×10^6 cell/dish) in DMEM containing 10% FBS; […] P/S, 20 mM glutamine, 100 nM insulin and 1 μM dexamethasone. After 4 hours of culture, non-adherent cells were washed away with 1×PBS. The remaining hepatocytes were cultured or treated in regular DMEM medium.
(§4) Total RNA was extracted from cells with Trizol (Invitrogen, Life Technologies, Carlsbad, Calif.) and quantified with an Agilent 2100 Bioanalyzer. For mRNA quantification, 2 μg of RNA was converted to cDNA with a High Capacity cDNA Reverse. Transcription kit (Applied Biosystems, Foster City, Calif.), and transcript levels of relevant genes were determined by real-time, quantitative PCR with an ABI 7300 Real Time PCR machine according to the manufacturer's instructions. (PCR primer information is available upon request)

[2] = system: HMG-CoA reductase (HMGCR) mRNA; assay: HMG-CoA reductase mRNA levels in HepG2 cells by quantitative RT-PCR; format: cell-based, human; conditions: 6 hours; for HMG-CoA reductase mRNA levels: 0.03 mM compound
Method: as §1, §2, §3, §4

[3] = system: HepG2 cells; assay: Cytotoxicity in HepG2 cells; format: cell-based, human; conditions: data not shown
[4] = system: 293 cells; assay: Cytotoxicity in 293 cells; format: cell-based; conditions: 0.1 mM BF-102; data not shown
[5] = system: HepG2 cells; assay: Palmitate synthesis in HepG2 cells (deuterated water GC/MS); format: cell-based, human; conditions: HepG2 cells as printed
Method: (§5) Quantitative measurement of fatty acids and cholesterol synthesis Fatty acids and cholesterol synthesis rate was determined using the deuterated water—GC/MS method as described previously.

[6] = system: HepG2 cells; assay: Cholesterol synthesis in HepG2 cells (deuterated water GC/MS); format: cell-based, human; conditions: 20 μM, 12 hours
Method: as §5

[7] = system: FAO cells; assay: Palmitate synthesis rate in FAO cells (deuterium enrichment, GC/MS); format: cell-based, rat; conditions: 20 μM, 12 hours, 100 nM insulin
Method: as §3, with “medium. Fatty acids and cholesterol synthesis rate was, determined using the deuterium enrichment method followed by GC/MS analysis. Briefly, cells were cultured in regular DMEM medium containing 10% 2H2O for 18 hours. Fatty acids and cholesterol were purified by extraction with organic solvents chloroform/methanol and quantitatively measured by GC/MS. The synthesis rates were presented as the percentage of ^2H-containing palmitate or cholesterol in total amount of palmitate or cholesterol.” for “medium.”

[8] = system: FAO cells; assay: Cholesterol synthesis rate in FAO cells (deuterium enrichment, GC/MS); format: cell-based, rat; conditions: 20 μM, 12 hours, 100 nM insulin
Method: as §3, with “medium. Fatty acids and cholesterol synthesis rate was, determined using the deuterium enrichment method followed by GC/MS analysis. Briefly, cells were cultured in regular DMEM medium containing 10% 2H2O for 18 hours. Fatty acids and cholesterol were purified by extraction with organic solvents chloroform/methanol and quantitatively measured by GC/MS. The synthesis rates were presented as the percentage of ^2H-containing palmitate or cholesterol in total amount of palmitate or cholesterol.” for “medium.”

[9] = Toxic responses in mice under standard chow, osmotic pumps; format: in vivo; conditions: one week, total of 0.6 mg/g body weight by osmotic pumps
[10] = system: HMGCR mRNA; assay: Hepatic HMGCR mRNA in HFD-fed mice by qRT-PCR; format: in vivo, C57BL/6J mice; conditions: 0.3 mg/g body weight, 1 week, osmotic pumps
Method: (§6) Male C57BI/6J mice were purchased from The Jackson Laboratory at 8 weeks of age and were rendered insulin resistant by feeding an HFD (60% kcal from fat; D12492, Research Diets) for 4 weeks. Then the treatment with BF-102 or BF175 was performed for 1 week (osmotic pumps) or several weeks (in HFD).
as §4

[11] = system: FAS mRNA; assay: Hepatic FAS mRNA in HFD-fed mice by qRT-PCR; format: in vivo, C57BL/6J mice; conditions: 0.3 mg/g body weight, 1 week, osmotic pumps
Method: as §6, §4

| SMILES | FAS mRNA levels [1] | FAS mRNA levels ([1]; listed as BF-02) | HMG-CoA reductase mRNA levels [2] | mRNA levels of HMGCR, dose dependence ([2]; indicated concentrations) | cytotoxicity in HepG2 cells ([3]; 0.1 mM BF-102) | toxicity to HepG2 cells ([3]; at the doses used) | cytotoxicity in 293 cells [4] | palmitate synthesis [5] | cholesterol synthesis [6] | synthesis rate of palmitate [7] | synthesis rate of cholesterol [8] | toxic responses [9] | reduction of hepatic mRNA levels of HMGCR vs DMSO controls [10] [fold] | hepatic FAS mRNA levels [11] |
| --- | --- | --- | --- | --- | --- | --- | --- | --- | --- | --- | --- | --- | --- | --- |
| CC1(C)OB(c2ccc(C=Cc3ccc(O)cc3)cc2)OC1(C)C [BF-102, 4-{2-[4-(4,4,5,5-Tetramethyl-[1,3,2]dioxaborolan-2-yl)-phenyl]-vinyl}-phenol] | strong inhibition | significant decrease | strong inhibition | dose-dependently decrease | no significant cytotoxicity | not toxic | no significant cytotoxicity | inhibits | inhibits | significantly decrease | dramatically decrease | no apparent toxic responses | ~5 | significantly down regulated |
| CC1(C)OB(c2ccc(C=Cc3cc(Cl)cc(Cl)c3)cc2)OC1(C)C [MD131, 3,5-dichloro-4/-(4,4,5,5-Tetramethyl-1,3,2-dioxaborolan-2-yl)stilbene] | strong inhibition | – | strong inhibition | – | – | – | – | – | – | – | – | – | – | – |
